{"source": "paper PMC6946680", "about": "“Modulation of brain cation-Cl^− cotransport via the SPAK kinase inhibitor ZT-1a” (Nature Communications, 2020)", "assay": "ZT-1a content in plasma and brain of sham and tMCAO mice (LC-MS/MS)", "assay_type": "in vivo, mouse", "conditions": "for plasma ZT-1a concentration: Fig 6e; for plasma ZT-1a concentration / Brain tissue ZT-1a concentration: individual animals; for Brain tissue ZT-1a concentration: Fig 6f", "note": "“And” between values parts separate entries of the source, which are not always exact repeats. Equal values may be shown once.", "data": [{"smiles": "Cc1cc(C(C#N)c2ccc(Cl)cc2)c(Cl)cc1NC(=O)c1cc(Cl)ccc1O", "note": "(stereo not drawn) [ZT-1a, 5-chloro-N-(5-chloro-4-((4-chlorophenyl)(cyano)methyl)-2-methylphenyl)-2-hydroxybenzamide]", "values": [{"measurement": "ZT-1a concentration in CL and IL hemispheres of ischemic brains relative to sham brains", "setting": "2 h after 5 mg/kg i.p.", "value": "~ 1.8 fold"}, {"measurement": "plasma ZT-1a levels in ischemic versus non-ischemic sham mice", "setting": "2 h after 5 mg/kg i.p.", "value": "indistinguishable"}, {"measurement": "plasma ZT-1a concentration", "setting": "Sham mice", "value": "329.00 ng/mL and 282.00 ng/mL and 324.00 ng/mL and 520.00 ng/mL and 751.00 ng/mL and 743.08 ng/mL and 457.88 ng/mL and 359.25 ng/mL and 143.14 ng/mL and 588.55 ng/mL and 379.00 ng/mL"}, {"measurement": "plasma ZT-1a concentration", "setting": "tMCAO mice", "value": "1494.00 ng/mL and 655.00 ng/mL and 82.00 ng/mL and 678.79 ng/mL and 587.05 ng/mL and 302.56 ng/mL and 827.38 ng/mL and 531.10 ng/mL and 662.00 ng/mL"}, {"measurement": "Brain tissue ZT-1a concentration", "setting": "sham, CL hemisphere", "value": "221.00 ng/gm tissue and 107.00 ng/gm tissue and 97.00 ng/gm tissue and 50.00 ng/gm tissue and 133.00 ng/gm tissue and 120.00 ng/gm tissue and 67.00 ng/gm tissue and 61.00 ng/gm tissue and 77.00 ng/gm tissue and 131.00 ng/gm tissue"}, {"measurement": "Brain tissue ZT-1a concentration", "setting": "sham, IL hemisphere", "value": "174.00 ng/gm tissue and 130.00 ng/gm tissue and 100.00 ng/gm tissue and 155.00 ng/gm tissue and 76.00 ng/gm tissue and 115.00 ng/gm tissue and 89.00 ng/gm tissue and 78.00 ng/gm tissue and 59.00 ng/gm tissue and 139.00 ng/gm tissue"}, {"measurement": "Brain tissue ZT-1a concentration", "setting": "tMCAO, CL hemisphere", "value": "161.00 ng/gm tissue and 118.00 ng/gm tissue and 139.00 ng/gm tissue and 285.00 ng/gm tissue and 269.00 ng/gm tissue and 132.00 ng/gm tissue and 326.00 ng/gm tissue and 170.00 ng/gm tissue and 163.00 ng/gm tissue and 133.00 ng/gm tissue and 245.00 ng/gm tissue"}, {"measurement": "Brain tissue ZT-1a concentration", "setting": "tMCAO, IL hemisphere", "value": "217.00 ng/gm tissue and 131.00 ng/gm tissue and 171.00 ng/gm tissue and 369.00 ng/gm tissue and 215.00 ng/gm tissue and 238.00 ng/gm tissue and 154.00 ng/gm tissue and 150.00 ng/gm tissue and 199.00 ng/gm tissue"}, {"measurement": "penetration across the healthy BBB", "setting": "normal naive mice", "value": "minimal"}]}]}
